Entries after “also recorded” stand apart in the source; their conditions may differ.

Data on two compounds can be found in US5747661A, “Retinoid-inducible response elements” (Howard Hughes Medical Institute).

The test system of test [1] is RARs. As to conditions: from the literature; cited from earlier work.
The test system of test [2] is hLXRα. Put plainly: CV-1 cotransfection assay, hLXRα expression plasmid with LXRE luciferase reporter (TK-LXRE3-LUC / TK-LXRE2-LUC). The test is classed as cell-based, human. As to conditions: CV-1 cells, hLXRα transfected alone; 10^-5 M 9cRA, 10^-5 M TTNPB, 10^-4 M methoprene acid; harvested 36 hours after ligand. The method, then:
CV-1 cells were maintained at 37° C., 5% CO2 in DMEM containing 5% calf bovine serum (CBS). Transfections were performed in 8-well plates in media containing 5% dextran-charcoal stripped CBS by the calcium phosphate coprecipitation technique as described previously (Mangelsdorf et al., (1990) supra). Eight hours after transfections ligands were delivered to cells at 10^3 -fold dilutions (0.1% vol/vol of solvent in media). Retinoids (gifts from Marcus Boehm at Ligand Pharmaceuticals, Inc.) were manipulated under gold light and stored dark in ethanol or methanol under nitrogen gas at -80° C. Cells were harvested 36 hours after addition of ligand and analyzed for luciferase and β-galactosidase activity using a Dynatech microtiter plate Model ML3000 luminometer and a Model MR5000 spectrophotometer, respectively.
For most experiments, cotransfection of DNA into mammalian cells was accomplished with 50 ng reporter plasmid, 50 ng RSV- or CMX-βgal, 25 ng of each receptor expression plasmid and pGEM carrier to give 375 ng DNA/well. For controls, the empty CMX vector was used in place of the receptor cDNA. For the GAL4-receptor chimera experiments, 30 ng receptor and 80 ng of reporter plasmid were used. For GAL4 and VP16 chimera interaction assays, 30 ng of GAL4-LXRα and 15 ng of the VP16-RAR or -RXR were used along with 80 ng of the reporter plasmid. All transfection data points were normalized using an internal β-galactosidase marker (Mangelsdorf et al., (1990) supra) and represent the mean of duplicate or triplicate assays.
To identify a potential ligand for the orphan receptor LXRα, a cell-based cotransfection screening assay similar to that used to successfully identify the RXR ligand (see Mangelsdorf et al., (1990) supra; Heyman et al., in Cell68:397-406 (1992)) was employed. Initially an LXR responsive gene was unknown, therefore the preliminary experiments were designed to first identify an LXR-specific DNA binding sequence that could serve as an LXR responsive element (referred to as an LXRE). […] Thus, an assay system was established by transfecting CV-1 cells with an expression plasmid harboring the cDNA for LXRα and the luciferase reporter plasmid TK-LXRE3-LUC (see FIG. 2a). TK-LXRE3-LUC contains three copies of the LXRE defined herein; TK-CRBPII-LUC contains the RXRE from the rat CRBPII promoter (Mangelsdorf et al., (1991) supra)); TK-βRE-LUC contains the RAR response element from the mouse RARβ2 promoter (Sucov et al., (1990) supra). Luciferase activity is expressed in relative light units (RLU) and represents the mean of triplicate assays (±SEM) normalized to βgal as an internal standard.
Thus, expression plasmids for hLXRα, hRXRα, or no receptor (-) were cotransfected into CV1 cells in combination with the reporter plasmids TK-LUC or TK-LXRE2-LUC as indicated. […]
Background: In a reporter assay the amount or activity of a reporter protein is the signal.

The target in test [3] is T1, GAL4-RAR (Homo sapiens, UniProt P10276).
T1 construct: hRARα 185-462; expressed in transfected cells; host or cells: CV-1
T1 sequence (P10276 185-462): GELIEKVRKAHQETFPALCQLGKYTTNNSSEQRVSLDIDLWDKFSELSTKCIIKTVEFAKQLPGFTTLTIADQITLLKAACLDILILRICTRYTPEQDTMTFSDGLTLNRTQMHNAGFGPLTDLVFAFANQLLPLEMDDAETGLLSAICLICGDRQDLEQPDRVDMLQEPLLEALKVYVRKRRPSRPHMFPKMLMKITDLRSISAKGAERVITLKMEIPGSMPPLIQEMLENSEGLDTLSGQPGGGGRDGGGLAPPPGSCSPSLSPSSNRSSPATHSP
Put plainly: GAL4-receptor chimera ligand activation, GAL4-RAR with TK-MH100x4-LUC in CV1 cells. The format is cell-based. As to conditions: 10^-5 M 9cRA, 10^-5 M TTNPB, 10^-4 M methoprene acid, FIG. 3c. On the procedure:
(§1) FIG. 3C illustrates the ligand specificity of the GAL4-receptor chimeras. […] In both 3B and 3C, CV1 cells were cotransfected as described previously with CMX vectors driving expression of the indicated hybrid proteins and the reporter plasmid TK-MH100x4-LUC, which contains four copies of the GAL4 DNA upstream activation sequence. In FIG. 3C, ligands were added as described with reference to FIG. 2. Luciferase activity is expressed as RLUs (relative light units) corrected for transfection efficiency using an internal […] standard and represents the mean of triplicate assays (±SEM).
The hLXRα cDNA insert was excised from the plasmid pXR2ΔRV with Kpn1 and BamHI and ligated into the expression vectors RSV and CMX. […] The cDNAs encoding the ligand-binding domain (LBD) of each of the receptors were then ligated into the polylinker to create GAL4-LBD fusions.
Such heterologous system provides an effective means for directly assaying receptor/ligand interactions, even in the presence of endogenous wild-type receptors.

Test [4] concerns the target T2, GAL4-LXR (Homo sapiens, UniProt Q13133).
T2 construct: hLXRα 166-447; expressed in transfected cells; host or cells: CV-1
T2 sequence (Q13133 166-447): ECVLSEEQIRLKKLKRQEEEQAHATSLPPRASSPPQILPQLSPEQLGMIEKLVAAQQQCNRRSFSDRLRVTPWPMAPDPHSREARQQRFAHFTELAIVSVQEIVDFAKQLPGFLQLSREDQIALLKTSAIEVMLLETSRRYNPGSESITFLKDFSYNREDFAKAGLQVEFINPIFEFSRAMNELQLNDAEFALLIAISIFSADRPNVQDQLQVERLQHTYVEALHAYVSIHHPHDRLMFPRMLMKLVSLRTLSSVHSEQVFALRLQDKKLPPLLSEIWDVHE
Put plainly: GAL4-receptor chimera ligand activation, GAL4-LXR with TK-MH100x4-LUC in CV1 cells. The test is classed as cell-based. As to conditions: 10^-5 M 9cRA, 10^-5 M TTNPB, 10^-4 M methoprene acid, FIG. 3c. The method, then: as §1
Construction of wild-type receptor inserted into the expression vectors RSV and CMX, have been detailed elsewhere (Gigueere et al., in Cell46:645-652 (1986); Umesono et al., in Cell65:1255-1266 (1991); Mangelsdorf et al., (1990) supra). The hLXRα cDNA insert was excised from the plasmid pXR2ΔRV with Kpn1 and BamHI and ligated into the expression vectors RSV and CMX. Chimeric Gal4-receptor expression plasmids (e.g. CMX-GAL4-LXRα) were constructed by first ligating the GAL4 portion of pSG424 (Sadowski and Ptashne, in Nucleic Acids Res. 17:[…] (1989)) into the HindIII/SacI sites of pCMX (Umesono et al., in Cell 65:1255-1266 (1991)) to create pCMX-GAL4. This vector contains the CMV promoter fused to the coding sequence for GAL4 (1-147), followed by inframe polylinker cloning sites and translational stop codons. The cDNAs encoding the ligand-binding domain (LBD) of each of the receptors were then ligated into the polylinker to create GAL4-LBD fusions.
The following receptor amino acid sequences were used for these constructions and their corresponding DNA sequences ligated into pCMX-GAL4:hLXRα 166-447, hRXRα 203-462 and hRARα 185-462.
To address the possibility that the retinoid response elicited by LXRα was through the direct interaction of ligand with the putative ligand binding domain of LXRα, ligand activation experiments were performed with the GAL4-receptor hybrids. […]

The test system of test [5] is RXRs. As to conditions: from the literature; cited from earlier work.

For `CC1=C(/C=C/C(C)=C\C=C\C(C)=C\C(=O)O)C(C)(C)CCC1` [9cRA, 9-cis retinoic acid], the “Ligand binding / specificity for RAR” value in test [1] was “high affinity ligand for both RARs and RXRs; also recorded: binds to both RXR and RAR”. The “LXRα activation of LXRE-containing luciferase reporter (TK-LXRE3-LUC)” value in test [2] is recorded as “strongly activated”. For the same compound, in test [3], the “Ligand inducible transactivation by GAL4-RAR chimera” value is “activates both RXR and RAR”. Besides, the “Ligand inducible transactivation by GAL4-LXR chimera” value in test [4] is listed as “no activation”. The “Ligand binding / specificity for RXR” value in test [5] is “high affinity ligand for both RARs and RXRs; also recorded: binds to both RXR and RAR”.

As for `C/C(=C\c1ccc(C(=O)O)cc1)c1ccc2c(c1)C(C)(C)CCC2(C)C` [TTNPB, (E)-4-[2-(5,6,7,8-tetrahydro-5,5,8,8-tetramethyl-2-napthalenyl) -1-propenyl]benzoic acid], the “Ligand binding / specificity for RAR” value in test [1] is listed as “RAR-specific”. Further, the “LXRα activation of LXRE-containing luciferase reporter (TK-LXRE3-LUC)” value in test [2] is on record as “no effect”. Besides, the “Ligand inducible transactivation by GAL4-LXR chimera” value in test [4] is “no activation”.
